Experiments:
HCMV polymerase = target: T1, HCMV polymerase (Human cytomegalovirus, UniProt P08546); test: HCMV polymerase assay (scintillation proximity assay, modified version); type: biochemical; settings: modified SPA assay; compounds diluted in 100% DMSO; 4.5 mM DTT
T1 construct: made in house; host or cells: recombinant baculovirus-infected SF-9 cells
Procedure: The HCMV polymerase assay is performed using a scintillation proximity assay (SPA) as described in several references, such as N. D. Cook, et al., Pharmaceutical Manufacturing International, pages 49-53 (1992); K. Takeuchi, Laboratory Practice, September issue (1992); U.S. Pat. No. 4,568,649 (1986); which are incorporated by reference herein. Reactions are performed in 96-well plates. The assay is conducted in 100 μl volume with 5.4 mM HEPES (pH 7.5), 11.7 mM KCl, 4.5 mM MgCl2, 0.36 mg/ml BSA, and 90 nM ^3H-dTTP. Assays are run with and without CHAPS, (3-[(3-cholamidopropyl)-dimethylammonio]-1-propane-sulfonate) at a final concentration of 2 mM. HCMV polymerase is diluted in enzyme dilution buffer containing 50% glycerol, 250 mM NaCl, 10 mM HEPES (pH 7.5), 100 μg/ml BSA, and 0.01% sodium azide. The HCMV polymerase, which is expressed in recombinant baculovirus-infected SF-9 cells and purified according to literature procedures, is added at 10% (or 10 μl) of the final reaction volume, i.e., 100 μl. Compounds are diluted in 50% DMSO and 10 μl are added to each well. Control wells contain an equivalent concentration of DMSO. Unless noted otherwise, reactions are initiated via the addition of 6 nM biotinylated poly(dA)-oligo(dT) template/primer to reaction mixtures containing the enzyme, substrate, and compounds of interest. Plates are incubated in a 25° C. or 37° C. H2O bath and terminated via the addition of 40 μl/reaction of 0.5 M EDTA (pH 8) per well. Reactions are terminated within the time-frame during which substrate incorporation is linear and varied depending upon the enzyme and conditions used, i.e., 30 min. for HCMV polymerase. Ten μl of streptavidin-SPA beads (20 mg/ml in PBS/10% glycerol) are added following termination of the reaction. Plates are incubated 10 min. at 37° C., then equilibrated to room temperature, and counted on a Packard Topcount. Linear regressions are performed and IC50's are calculated using computer software.
A modified version of the above HCMV polymerase assay is performed as described above, but with the following changes: Compounds are diluted in 100% DMSO until final dilution into assay buffer. In the previous assay, compounds are diluted in 50% DMSO. 4.5 mM dithiotherotol (DTT) is added to the polymerase buffer. […] All results are listed as Polymerase IC50 (μM) values. In Table 1, the term “nd” refers to activity data not determined.

VZV polymerase = VZV polymerase (Varicella-zoster virus, UniProt P09252); test: VZV polymerase assay (Table 1); type: biochemical
Sequence of VZV polymerase (P09252 whole entry): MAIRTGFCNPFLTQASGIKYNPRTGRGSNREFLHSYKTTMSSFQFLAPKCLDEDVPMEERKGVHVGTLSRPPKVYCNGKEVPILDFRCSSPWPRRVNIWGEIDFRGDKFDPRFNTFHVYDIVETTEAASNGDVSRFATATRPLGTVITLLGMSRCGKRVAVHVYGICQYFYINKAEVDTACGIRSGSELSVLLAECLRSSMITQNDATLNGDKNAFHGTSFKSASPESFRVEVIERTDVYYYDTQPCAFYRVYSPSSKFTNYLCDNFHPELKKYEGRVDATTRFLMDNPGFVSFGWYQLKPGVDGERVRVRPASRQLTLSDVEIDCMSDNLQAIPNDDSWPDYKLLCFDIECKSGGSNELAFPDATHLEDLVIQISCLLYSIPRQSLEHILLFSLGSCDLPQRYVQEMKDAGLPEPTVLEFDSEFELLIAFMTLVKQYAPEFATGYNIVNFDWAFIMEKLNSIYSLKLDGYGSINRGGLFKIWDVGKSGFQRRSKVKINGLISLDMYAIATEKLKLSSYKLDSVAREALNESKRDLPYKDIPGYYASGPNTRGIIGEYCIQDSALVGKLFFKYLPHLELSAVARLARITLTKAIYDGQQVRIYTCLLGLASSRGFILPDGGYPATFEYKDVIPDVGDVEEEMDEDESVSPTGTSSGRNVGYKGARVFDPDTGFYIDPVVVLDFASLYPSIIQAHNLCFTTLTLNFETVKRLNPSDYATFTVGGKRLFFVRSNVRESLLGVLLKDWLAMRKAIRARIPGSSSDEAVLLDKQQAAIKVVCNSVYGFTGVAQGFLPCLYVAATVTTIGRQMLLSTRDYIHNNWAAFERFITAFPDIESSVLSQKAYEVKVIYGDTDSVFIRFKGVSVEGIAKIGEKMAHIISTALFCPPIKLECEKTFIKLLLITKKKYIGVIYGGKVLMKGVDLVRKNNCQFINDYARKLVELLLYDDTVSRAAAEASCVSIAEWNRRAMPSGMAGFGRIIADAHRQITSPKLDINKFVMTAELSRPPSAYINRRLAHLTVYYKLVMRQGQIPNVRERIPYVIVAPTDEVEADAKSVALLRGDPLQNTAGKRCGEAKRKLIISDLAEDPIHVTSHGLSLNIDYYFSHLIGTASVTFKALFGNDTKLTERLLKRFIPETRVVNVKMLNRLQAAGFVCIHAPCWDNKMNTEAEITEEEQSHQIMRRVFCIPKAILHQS

HSV polymerase = HSV polymerase (Human herpesvirus 1, UniProt P04293); test: HSV polymerase assay (Table 1); type: biochemical
Sequence of HSV polymerase (P04293 whole entry): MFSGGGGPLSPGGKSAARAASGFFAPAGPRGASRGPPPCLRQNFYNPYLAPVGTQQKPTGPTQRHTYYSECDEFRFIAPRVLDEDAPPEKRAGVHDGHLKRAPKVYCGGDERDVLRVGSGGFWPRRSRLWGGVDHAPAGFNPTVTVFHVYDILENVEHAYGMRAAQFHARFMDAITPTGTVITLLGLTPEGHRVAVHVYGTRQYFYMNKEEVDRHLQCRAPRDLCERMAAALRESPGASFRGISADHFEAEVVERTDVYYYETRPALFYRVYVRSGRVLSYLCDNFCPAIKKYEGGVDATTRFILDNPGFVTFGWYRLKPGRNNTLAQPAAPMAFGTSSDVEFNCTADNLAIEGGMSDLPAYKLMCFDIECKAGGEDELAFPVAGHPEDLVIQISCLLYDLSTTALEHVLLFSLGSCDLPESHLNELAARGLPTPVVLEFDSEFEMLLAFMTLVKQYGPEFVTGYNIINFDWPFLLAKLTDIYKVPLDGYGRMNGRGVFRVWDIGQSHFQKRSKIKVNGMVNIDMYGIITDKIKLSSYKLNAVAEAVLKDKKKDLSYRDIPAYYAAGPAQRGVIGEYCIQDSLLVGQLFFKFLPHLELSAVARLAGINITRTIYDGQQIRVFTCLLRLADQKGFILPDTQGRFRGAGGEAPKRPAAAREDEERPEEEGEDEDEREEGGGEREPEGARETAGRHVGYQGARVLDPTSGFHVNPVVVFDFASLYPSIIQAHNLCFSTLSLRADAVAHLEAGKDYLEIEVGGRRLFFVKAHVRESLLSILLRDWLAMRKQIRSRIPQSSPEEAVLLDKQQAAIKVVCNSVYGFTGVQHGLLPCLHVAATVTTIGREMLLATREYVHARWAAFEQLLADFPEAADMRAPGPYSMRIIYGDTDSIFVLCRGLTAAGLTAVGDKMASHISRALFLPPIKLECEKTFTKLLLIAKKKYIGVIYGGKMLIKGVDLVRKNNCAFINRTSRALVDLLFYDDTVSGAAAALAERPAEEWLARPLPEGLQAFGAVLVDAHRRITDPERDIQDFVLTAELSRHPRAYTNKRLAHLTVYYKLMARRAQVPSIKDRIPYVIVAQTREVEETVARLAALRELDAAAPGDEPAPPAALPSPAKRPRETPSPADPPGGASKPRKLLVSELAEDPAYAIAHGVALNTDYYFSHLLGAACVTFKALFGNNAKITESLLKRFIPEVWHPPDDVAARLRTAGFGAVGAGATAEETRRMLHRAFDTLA

T1 sequence (P08546 whole entry): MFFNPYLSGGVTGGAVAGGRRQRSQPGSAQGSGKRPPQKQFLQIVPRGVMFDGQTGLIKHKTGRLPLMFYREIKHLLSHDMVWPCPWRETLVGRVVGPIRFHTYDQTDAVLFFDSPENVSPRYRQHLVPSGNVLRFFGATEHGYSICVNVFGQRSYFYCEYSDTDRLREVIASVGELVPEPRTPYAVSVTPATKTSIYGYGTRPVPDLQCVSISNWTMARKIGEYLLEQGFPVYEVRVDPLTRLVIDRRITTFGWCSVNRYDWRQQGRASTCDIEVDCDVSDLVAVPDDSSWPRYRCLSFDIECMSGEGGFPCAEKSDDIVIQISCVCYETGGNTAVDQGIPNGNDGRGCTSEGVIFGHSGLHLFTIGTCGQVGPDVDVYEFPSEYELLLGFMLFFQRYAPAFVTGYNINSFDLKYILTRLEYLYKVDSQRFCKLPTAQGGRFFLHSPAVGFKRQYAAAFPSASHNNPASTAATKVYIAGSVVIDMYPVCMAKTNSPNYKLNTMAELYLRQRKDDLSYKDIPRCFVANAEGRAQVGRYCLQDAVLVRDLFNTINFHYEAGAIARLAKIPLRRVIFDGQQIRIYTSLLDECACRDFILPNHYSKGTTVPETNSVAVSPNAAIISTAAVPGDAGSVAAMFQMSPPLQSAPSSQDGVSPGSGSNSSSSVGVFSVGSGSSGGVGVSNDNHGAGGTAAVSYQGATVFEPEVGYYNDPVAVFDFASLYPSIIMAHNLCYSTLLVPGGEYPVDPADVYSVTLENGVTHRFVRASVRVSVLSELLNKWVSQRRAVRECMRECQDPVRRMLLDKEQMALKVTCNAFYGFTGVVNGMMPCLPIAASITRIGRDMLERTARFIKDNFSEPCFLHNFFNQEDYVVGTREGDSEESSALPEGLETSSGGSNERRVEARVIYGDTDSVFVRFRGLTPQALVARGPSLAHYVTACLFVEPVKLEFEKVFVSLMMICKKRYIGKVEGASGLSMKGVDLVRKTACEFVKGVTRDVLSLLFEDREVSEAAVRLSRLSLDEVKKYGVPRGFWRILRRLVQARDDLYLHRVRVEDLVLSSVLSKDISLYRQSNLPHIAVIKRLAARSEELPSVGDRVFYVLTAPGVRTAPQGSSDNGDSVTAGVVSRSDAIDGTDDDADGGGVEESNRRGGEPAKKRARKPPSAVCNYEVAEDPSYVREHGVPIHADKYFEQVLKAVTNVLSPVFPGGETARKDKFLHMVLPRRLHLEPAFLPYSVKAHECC

Compound | melting point [°C] | IC50 (HCMV polymerase) [nM] | IC50 (VZV polymerase) [nM] | IC50 (HSV polymerase) [nM]
Cn1nc(C(=O)NCc2ccc(Cl)cc2)c(=O)c2cc(I)ccc21 [Example 1, N-(4-chlorobenzyl)-6-iodo-1-methyl-4-oxo-1,4-dihydro-3-cinnolinecarboxamide] | 194 to 195 | 5500 |  | 
Cn1nc(C(=O)NCc2ccc(Cl)cc2)c(=O)c2cc(C#CCO)ccc21 [Example 2, N-(4-chlorobenzyl)-6-(3-hydroxy-1-propynyl)-1-methyl-4-oxo-1,4-dihydro-3-cinnolinecarboxamide] | 229 to 231 | 2700 | 1100 | 1700

The next lines start with the values.

melting point [°C] | IC50 (HCMV polymerase) [nM] | IC50 (VZV polymerase) [nM] | IC50 (HSV polymerase) [nM] | Compound
227 to 229 | 9800 |  |  | Cn1nc(C(=O)NCc2ccc(Cl)cc2)c(=O)c2cc(C#CCCO)ccc21 [Example 3, N-(4-chlorobenzyl)-6-(4-hydroxy-1-butynyl)-1-methyl-4-oxo-1,4-dihydro-3-cinnolinecarboxamide]
203 to 205 | 16700 |  |  | Cn1nc(C(=O)NCc2ccc(Cl)cc2)c(=O)c2cc(CO)ccc21 [Example 4, N-(4-chlorobenzyl)-6-(hydroxymethyl)-1-methyl-4-oxo-1,4-dihydro-3-cinnolinecarboxamide]
190 to 192 | 1200 |  |  | Cn1nc(C(=O)NCc2ccc(Cl)cc2)c(=O)c2cc(CN3CCOCC3)ccc21 [Example 5, N-(4-chlorobenzyl)-1-methyl-6-(4-morpholinylmethyl)-4-oxo-1,4-dihydro-3-cinnolinecarboxamide]

Source: patent US6624160B2, “4-oxo-1,4-dihydro-3-cinnolinecarboxamides as antiviral agents” (Pharmacia & Upjohn Co., priority 2000, dated 2003)
